Assays:
[1] = biological target: T1, α1G T-type calcium channel (Homo sapiens, UniProt O43497); assay: Assay for % inhibiting activity against T-type calcium channel using FDSS6000 (fluo-3 calcium imaging, KCl activation); format: cell-based; conditions: HEK293, 10 μM; HEK293 cells stably expressing α1G T-type calcium channel and Kir2.1; compounds of the examples; read-out: FDSS (% inhibition)/10uM
T1 construct: host or cells: HEK293
Description: In the present invention, in order to examine an efficient inhibitor against the T-type calcium channel, a primary assay for T-type calcium channel inhibiting activity was conducted by a high-efficient assay using FDSS6000, wherein mammal HEK293 cell lines (originated from human kidney carcinoma cells) that specifically express α1G of the T-type calcium channel was used for primary assay. Through the primary assay, compounds that show meaningful inhibition effects were selected. The selected compounds were used in a second assay for T-type calcium channel inhibiting activity using an electrophysiological whole cell patch clamp method, wherein mammal HEK293 cell lines (originated from human kidney carcinoma cells) that specifically express α1G of the T-type calcium channel was used for the second assay. Mibefradil, which had been developed as a T-type calcium channel inhibitor, was used as a reference.
At 12-24 hours before being used for this assay, cells of HEK293 cell line (α1G cell line: KCTC 10519BP, Korean Collection for Type Cultures), which stably express α1G T-type calcium channel and Kir2.1, were sub-cultured in a poly-L-lysine treated 96-well plate with the density of 4×10^4 per well using a 96-well cell dispenser (Titertek). On the day of assay, the 96-well plate to which the cells were attached was washed three times with HEPES buffer solution (150 mM of NaCl, 5 mM of KCl, 1 mM of MgCl2, 2 mM of CaCl2, 10 mM of HEPES, 10 mM of glucose; pH 7.4) using a 96-well plate automatic washing device (Bio Tek), then reacted with HEPES buffer solution containing 5 μM fluo-3/AM and 0.001% Pluronic F-127 at room temperature for 1 hour, to label with fluorescent dye, and then further washed two times with HEPES buffer solution.
Thereafter, at 10 minutes before the measurement using device FDSS6000, washing with HEPES buffer solution containing 10 mM CaCl2 was conducted once more, and the final volume was adjusted to 81 μl. Besides the above 96-well plate containing the cells, two additional drug 96-well plates were provided, wherein the 96-well plates contained an inhibiting drug and KCl (final concentration: 75 mM) for activating the T-type calcium channel, respectively. Since most of cell-based HTS devices are equipped with a liquid application system for injection of drug, but have no liquid sucking system, the inhibiting drug to be tested and KCl were respectively provided at a five-times higher concentration in 10 mM CaCl2 HEPES buffer solution at the amount of 27 μl, diluted by five-times at the final cell plate volume of 135 μl, and then used in this test. The concrete method of measurement using FDSS6000 was as follows. After recording the reference value of 20 seconds, the change of intracellular Ca^2+ concentration that was induced by treatment of the inhibiting drug to be tested for 75 seconds followed by administration of KCl was measured, wherein the percentage (%) inhibition effect of the test drug, through estimating the area of ratio value of 340/380 in the control without treatment of the test drug, was 100%. As a reference drug, 10 μM mibefradil was used.
For accurate calcium imaging, the light source of 4 xenon lamps in FDSS6000 were radiated to selectively expose the cells to the excitation wavelength (340 nm and 380 nm) by a computer-controlled filter wheel. Data was obtained at intervals of 1.23 seconds. The emitter fluorescence light inflowed through a long-pass filter was obtained as an average 340/380 ratio value for each well in the 96-wells by using a CCD camera and a digital fluorescence analyzer in FDSS6000. All image data and analyses were obtained by using a FDSS6000-exclusive program from Hamamatsu Photonics.
The obtained results are shown in Table 2 (the results from the compounds according to the examples of the present invention) and Table 3 (the results from the compounds according to the comparative example where R6 is a phenyl group) [FDSS (% inhibition) 10 μM].

T1 sequence (O43497 whole entry): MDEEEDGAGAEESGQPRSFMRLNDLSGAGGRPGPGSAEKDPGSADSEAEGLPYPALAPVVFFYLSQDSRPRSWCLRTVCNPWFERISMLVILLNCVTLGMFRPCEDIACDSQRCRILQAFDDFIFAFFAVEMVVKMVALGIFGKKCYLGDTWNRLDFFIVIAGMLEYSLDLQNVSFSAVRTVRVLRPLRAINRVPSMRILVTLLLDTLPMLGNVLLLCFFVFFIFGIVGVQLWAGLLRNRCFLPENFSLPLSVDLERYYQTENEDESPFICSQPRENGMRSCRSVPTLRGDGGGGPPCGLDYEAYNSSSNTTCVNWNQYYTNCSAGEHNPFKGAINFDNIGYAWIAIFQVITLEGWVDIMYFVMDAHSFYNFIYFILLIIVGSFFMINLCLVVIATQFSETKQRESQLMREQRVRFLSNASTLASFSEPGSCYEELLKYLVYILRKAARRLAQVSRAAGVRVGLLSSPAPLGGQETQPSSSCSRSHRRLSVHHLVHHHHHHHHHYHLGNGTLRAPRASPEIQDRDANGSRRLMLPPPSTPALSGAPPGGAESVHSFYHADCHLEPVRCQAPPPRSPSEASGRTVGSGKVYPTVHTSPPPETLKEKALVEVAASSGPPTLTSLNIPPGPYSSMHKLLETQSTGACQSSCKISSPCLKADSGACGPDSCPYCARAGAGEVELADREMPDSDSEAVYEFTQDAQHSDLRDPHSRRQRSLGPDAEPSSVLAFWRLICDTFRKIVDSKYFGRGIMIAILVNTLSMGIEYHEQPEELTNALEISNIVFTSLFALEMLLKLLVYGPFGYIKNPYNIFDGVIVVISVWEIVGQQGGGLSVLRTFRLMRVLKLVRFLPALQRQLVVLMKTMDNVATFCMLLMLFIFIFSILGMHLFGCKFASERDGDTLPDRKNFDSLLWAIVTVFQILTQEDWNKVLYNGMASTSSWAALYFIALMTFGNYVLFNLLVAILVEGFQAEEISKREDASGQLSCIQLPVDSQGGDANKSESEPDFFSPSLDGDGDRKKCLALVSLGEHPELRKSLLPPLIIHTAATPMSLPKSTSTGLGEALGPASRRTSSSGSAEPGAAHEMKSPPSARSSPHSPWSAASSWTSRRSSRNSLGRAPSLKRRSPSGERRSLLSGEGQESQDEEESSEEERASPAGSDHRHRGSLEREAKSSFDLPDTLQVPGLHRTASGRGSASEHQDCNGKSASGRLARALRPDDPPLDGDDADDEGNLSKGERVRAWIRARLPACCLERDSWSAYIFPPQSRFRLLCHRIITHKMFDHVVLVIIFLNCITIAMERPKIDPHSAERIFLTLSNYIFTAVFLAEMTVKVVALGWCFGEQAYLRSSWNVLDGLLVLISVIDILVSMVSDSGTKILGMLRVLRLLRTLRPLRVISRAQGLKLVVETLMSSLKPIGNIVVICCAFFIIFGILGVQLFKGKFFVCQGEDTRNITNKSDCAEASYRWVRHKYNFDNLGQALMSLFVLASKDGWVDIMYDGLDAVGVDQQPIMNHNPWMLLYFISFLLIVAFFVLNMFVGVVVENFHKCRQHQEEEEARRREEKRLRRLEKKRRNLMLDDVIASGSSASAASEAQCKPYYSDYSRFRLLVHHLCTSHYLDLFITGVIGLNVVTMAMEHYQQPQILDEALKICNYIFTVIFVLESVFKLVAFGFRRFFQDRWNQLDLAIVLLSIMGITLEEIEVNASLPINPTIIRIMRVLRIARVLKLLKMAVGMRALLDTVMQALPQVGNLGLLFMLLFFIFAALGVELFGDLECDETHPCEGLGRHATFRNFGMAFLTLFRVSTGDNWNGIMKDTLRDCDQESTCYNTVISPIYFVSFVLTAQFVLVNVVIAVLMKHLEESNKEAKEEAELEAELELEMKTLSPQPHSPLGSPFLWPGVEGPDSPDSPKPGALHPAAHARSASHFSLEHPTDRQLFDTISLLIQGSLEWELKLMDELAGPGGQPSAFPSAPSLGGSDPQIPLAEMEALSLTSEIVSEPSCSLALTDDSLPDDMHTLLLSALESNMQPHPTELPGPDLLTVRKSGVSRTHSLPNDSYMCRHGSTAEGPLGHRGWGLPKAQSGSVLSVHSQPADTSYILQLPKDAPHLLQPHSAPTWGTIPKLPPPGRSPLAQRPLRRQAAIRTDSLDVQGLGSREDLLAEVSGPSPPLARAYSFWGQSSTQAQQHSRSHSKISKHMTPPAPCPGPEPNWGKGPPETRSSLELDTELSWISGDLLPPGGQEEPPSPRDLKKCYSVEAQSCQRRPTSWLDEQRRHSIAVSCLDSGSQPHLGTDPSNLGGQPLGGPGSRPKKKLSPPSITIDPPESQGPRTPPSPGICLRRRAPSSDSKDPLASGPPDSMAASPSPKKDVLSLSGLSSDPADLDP

Compound: COc1cccc(NC(=O)CC2CSC(=NC3CCCCC3)N2C)c1.Cl (stereo not drawn) [KHG24076, (2-cyclohexylimino-3-methyl-1,3-thiazolidine-4-yl)-N-(3-methoxyphenyl)-acetamide hydrochloride]
- inhibition at 10 µM [1]: 39.9%
- melting point: 156 to 158 °C

Compound: CN1C(=NC2CCCCC2)SCC1CC(=O)Nc1ccc(F)cc1F.Cl (stereo not drawn) [KHG24081, (2-cyclohexylimino-3-methyl-1,3-thiazolidine-4-yl)-N-(2,4-difluorophenyl)-acetamide hydrochloride]
- inhibition at 10 µM [1]: 38.3%
- melting point: 206 to 208 °C

Compound: Cc1ccccc1CNC(=O)CC1CSC(=NC2CCCCC2)N1C.Cl (stereo not drawn) [KHG24082, (2-cyclohexylimino-3-methyl-1,3-thiazolidine-4-yl)-N-(2-methylbenzyl)-acetamide hydrochloride]
- inhibition at 10 µM [1]: 37.4%
- melting point: 220 to 221 °C

Compound: CCOC(=O)CCOc1cccc(NC(=O)CC2CSC(=NC3CCCCC3)N2C)c1.Cl (stereo not drawn) [KHG24085, (2-cyclohexylimino-3-methyl-1,3-thiazolidine-4-yl)-N-(3-ethoxycarbonylethoxyphenyl)-acetamide hydrochloride]
- inhibition at 10 µM [1]: 52.6%
- melting point: 241 to 242 °C

Compound: CN1C(=NC2CCCCC2)SCC1CC(=O)NCc1ccc(Cl)c(Cl)c1.Cl (stereo not drawn) [KHG24088, (2-cyclohexylimino-3-methyl-1,3-thiazolidine-4-yl)-N-(3,4-dichlorobenzyl)-acetamide hydrochloride]
- inhibition at 10 µM [1]: 43.2%
- melting point: 215 to 216 °C

Compound: COc1ccc(NC(=O)CC2CSC(=NC3CCCCC3)N2C)cc1OC.Cl (stereo not drawn) [KHG24090, (2-cyclohexylimino-3-methyl-1,3-thiazolidine-4-yl)-N-(3,4-dimethoxyphenyl)-acetamide hydrochloride]
- inhibition at 10 µM [1]: 32.1%
- melting point: 233 to 234 °C

Compound: Cc1ccc(NC(=O)CC2CSC(=NC3CCCCC3)N2C)cc1F.Cl (stereo not drawn) [KHG24091, (2-cyclohexylimino-3-methyl-1,3-thiazolidine-4-yl)-N-(3-fluoro-4-methylphenyl)-acetamide hydrochloride]
- inhibition at 10 µM [1]: 30.3%
- melting point: 210 to 212 °C

Compound: CN1C(=NC2CCCC2)SCC1CC(=O)Nc1ccc(F)cc1Cl.Cl (stereo not drawn) [KHG24095, (2-cyclopentylimino-3-methyl-1,3-thiazolidine-4-yl)-N-(2-chloro-4-fluorophenyl)-acetamide hydrochloride]
- inhibition at 10 µM [1]: 30.5%
- melting point: 209 to 210.5 °C

Compound: CN1C(=NC2CCCC2)SCC1CC(=O)Nc1ccc(Br)cc1.Cl (stereo not drawn) [KHG24098, (2-cyclopentylimino-3-methyl-1,3-thiazolidine-4-yl)-N-(4-bromophenyl)-acetamide hydrochloride]
- inhibition at 10 µM [1]: 50.5%
- melting point: 228 to 228.5 °C

Compound: CN1C(=NC2CCCC2)SCC1CC(=O)Nc1ccc(Oc2ccccc2)cc1.Cl (stereo not drawn) [KHG24099, (2-cyclopentylimino-3-methyl-1,3-thiazolidine-4-yl)-N-(4-phenoxyphenyl)-acetamide hydrochloride]
- inhibition at 10 µM [1]: 58.2%
- melting point: 230 to 230.5 °C

Compound: CN1C(=NC2CCCC2)SCC1CC(=O)Nc1cc(Cl)cc(Cl)c1.Cl (stereo not drawn) [KHG24100, (2-cyclopentylimino-3-methyl-1,3-thiazolidine-4-yl)-N-(3,5-dichlorophenyl)-acetamide hydrochloride]
- inhibition at 10 µM [1]: 60.8%
- melting point: 231 to 232.5 °C

Compound: CN1C(=NC2CCCC2)SCC1CC(=O)Nc1cc(Cl)ccc1F.Cl (stereo not drawn) [KHG24103, (2-cyclopentylimino-3-methyl-1,3-thiazolidine-4-yl)-N-(5-chloro-2-fluorophenyl)-acetamide hydrochloride]
- inhibition at 10 µM [1]: 45%
- melting point: 214 to 216 °C

Compound: CN1C(=NC2CCCC2)SCC1CC(=O)Nc1cc([N+](=O)[O-])ccc1F.Cl (stereo not drawn) [KHG24104, (2-cyclopentylimino-3-methyl-1,3-thiazolidine-4-yl)-N-(2-fluoro-5-nitrophenyl)-acetamide hydrochloride]
- inhibition at 10 µM [1]: 34.3%
- melting point: 234.5 to 236 °C

Compound: CN1C(=NC2CCCC2)SCC1CC(=O)Nc1ccc(Cl)cc1F.Cl (stereo not drawn) [KHG24105, (2-cyclopentylimino-3-methyl-1,3-thiazolidine-4-yl)-N-(4-chloro-2-fluorophenyl)-acetamide hydrochloride]
- inhibition at 10 µM [1]: 40.4%
- melting point: 228 to 230.5 °C

Compound: CN1C(=NC2CCCC2)SCC1CC(=O)Nc1ccc(Cl)cc1.Cl (stereo not drawn) [KHG24106, (2-cyclopentylimino-3-methyl-1,3-thiazolidine-4-yl)-N-(4-chlorophenyl)-acetamide hydrochloride]
- inhibition at 10 µM [1]: 49.4%
- melting point: 215 to 216 °C

Compound: CN1C(=NC2CCCCC2)SCC1CC(=O)Nc1cccc([N+](=O)[O-])c1.Cl (stereo not drawn) [KHG24108, (2-cyclohexylimino-3-methyl-1,3-thiazolidine-4-yl)-N-(3-nitrophenyl)-acetamide hydrochloride]
- inhibition at 10 µM [1]: 44.4%
- melting point: 207 °C

Compound: CN1C(=NC2CCCCC2)SCC1CC(=O)Nc1cccc(F)c1.Cl (stereo not drawn) [KHG24109, (2-cyclohexylimino-3-methyl-1,3-thiazolidine-4-yl)-N-(3-fluorophenyl)-acetamide hydrochloride]
- inhibition at 10 µM [1]: 48.4%
- melting point: 238 to 239.5 °C

Compound: Cc1cc(NC(=O)CC2CSC(=NC3CCCCC3)N2C)ccc1Br.Cl (stereo not drawn) [KHG24111, (2-cyclohexylimino-3-methyl-1,3-thiazolidine-4-yl)-N-(4-bromo-3-methylphenyl)-acetamide hydrochloride]
- inhibition at 10 µM [1]: 67.7%
- melting point: 237 to 238 °C

Compound: CN1C(=NC2CCCCC2)SCC1CC(=O)NCc1ccc(F)cc1.Cl (stereo not drawn) [KHG24112, (2-cyclohexylimino-3-methyl-1,3-thiazolidine-4-yl)-N-(4-fluorobenzyl)-acetamide hydrochloride]
- inhibition at 10 µM [1]: 30.3%
- melting point: 200 to 201 °C

Compound: CC(C)c1ccc(NC(=O)CC2CSC(=NC3CCCC3)N2C)cc1.Cl (stereo not drawn) [KHG24115, (2-cyclopentylimino-3-methyl-1,3-thiazolidine-4-yl)-N-(4-isopropylphenyl)-acetamide hydrochloride]
- inhibition at 10 µM [1]: 49.9%
- melting point: 213 to 215.5 °C

Compound: CCCCc1ccc(NC(=O)CC2CSC(=NC3CCCC3)N2C)cc1.Cl (stereo not drawn) [KHG24116, (2-cyclopentylimino-3-methyl-1,3-thiazolidine-4-yl)-N-(4-n-butylphenyl)-acetamide hydrochloride]
- inhibition at 10 µM [1]: 65.4%
- melting point: 216 to 217.5 °C

Compound: CN1C(=NC2CC2)SCC1CC(=O)Nc1ccc(Oc2ccccc2)cc1.Cl (stereo not drawn) [KHG24141, (2-cyclopropylimino-3-methyl-1,3-thiazolidine-4-yl)-N-(4-phenoxyphenyl)-acetamide hydrochloride]
- inhibition at 10 µM [1]: 35.7%
- melting point: 219.5 to 220 °C

Compound: CCCCc1ccc(NC(=O)CC2CSC(=NC3CC3)N2C)cc1.Cl (stereo not drawn) [KHG24152, (2-cyclopropylimino-3-methyl-1,3-thiazolidine-4-yl)-N-(4-n-butylphenyl)-acetamide hydrochloride]
- inhibition at 10 µM [1]: 33.9%
- melting point: 227.5 to 228.5 °C

Compound: CN1C(=NC2CCCC2)SCC1CC(=O)NCc1ccc(Cl)cc1.Cl (stereo not drawn) [KHG24157, (2-cyclopentylimino-3-methyl-1,3-thiazolidine-4-yl)-N-(4-chlorobenzyl)-acetamide hydrochloride]
- inhibition at 10 µM [1]: 36.7%
- melting point: 180 to 182 °C

Source: patent publication US7998989B2, “2-Imino-1,3-thiazoline-based compounds and T-type calcium channel inhibitors containing the same” (Korea Institute of Science and Technology, priority 2007, dated 2011)
